Source: PMC9525273 (Nature Communications, 2022)
Values joined by “and” are separate entries in the source; they are usually repeats but may differ in a detail not shown here. Equal values may be shown once. “Also recorded” adds a separate entry of the source. Read-outs that look alike come from different tables or passages of the source.

Tests used:
Type in all cases: cell-based, Plasmodium falciparum
[1] = test system: NF54^G358S-2 parasites; assay: P. falciparum proliferation assay (72 h, flow cytometry, SYBR Green I/MitoTracker); details: for FC (IC50) / FC (IC90): NF54G358S-2 compared to NF54WT
Method: (§1) For the NF54-based lines and Dd2-B2-PfATP4^G358S and its parent, assays were initiated with cultures containing predominantly ring-stage parasites with a parasitaemia of 0.3% and a haematocrit of 1%. All assays using NF54 were performed in culture media containing 10% O + human serum. The duration of the assays was 72 h and the concentration of DMSO was <0.5% (v/v). Serial dilutions of the test compounds were performed using a Tecan D300e digital dispenser, with parasite cultures added manually. Parasite survival was assessed by flow cytometry on an Intellicyt iQue3 (Essen Bioscience), with 1× SYBR Green I (Invitrogen) and 200 nM MitoTracker Deep Red FM (Invitrogen) used to stain the nucleus and the mitochondria in live parasites, respectively. The gating strategy used to quantify parasite survival, performed using FlowJo version 10 (FlowJo LLC.), is illustrated in Supplementary Fig. 9. IC50 and IC90 values were calculated by linear interpolation of the dose-response data.

[2] = test system: NF54^G358S-1 parasites; assay: as above; details: for FC (IC50) / FC (IC90): NF54G358S-1 compared to NF54WT
Method: as §1

[3] = test system: NF54^CTL parasites; assay: as above; details: for FC (IC50) / FC (IC90): NF54CTL compared to NF54WT
Method: as §1

[4] = test system: parasite lines with a G358S mutation in PfATP4; assay: P. falciparum proliferation assays, statements on all lines with the G358S mutation; details: G358S lines vs PfATP4 wild-type controls
Method: as §1, with “Two types of parasite proliferation assays were employed in this study, with both yielding highly consistent results. For” for “For”
(§2) For experiments with all other parasites, the effects of compounds of interest on parasite proliferation was measured in 96-well plates containing serial dilutions of the compounds in culture medium, with a fluorescent DNA-intercalating dye used to detect surviving parasites. The assays were initiated with erythrocytes infected with predominantly ring-stage parasites, and the starting parasitaemia and haematocrit were both 1%. […] Fluorescence was measured using a FLUOstar OPTIMA plate reader (BMG LABTECH), with OPTIMA version 2.20R2 and MARS Data Analysis Software version 3.01 R2 (BMG LABTECH).

[5] = test system: NF54^WT parasites; assay: microbe, parasite or virus in culture; details: for FC (IC50) / FC (IC90): NF54WT, reference line
Method: as §1

[6] = test system: gene-edited NF54 lines (NF54^CTL, NF54^G358S-1, NF54^G358S-2); assay: P. falciparum proliferation assay, statements on several edited NF54 lines; details: all edited NF54 lines, including NF54CTL, vs NF54WT
Method: as §1, with “Two types of parasite proliferation assays were employed in this study, with both yielding highly consistent results. For” for “For”

[7] = test system: Dd2-Polδ parasites; assay: P. falciparum proliferation assay (72 h, fluorescent DNA-intercalating dye)
Method: (§3) For experiments with all other parasites, the effects of compounds of interest on parasite proliferation was measured in 96-well plates containing serial dilutions of the compounds in culture medium, with a fluorescent DNA-intercalating dye used to detect surviving parasites. The assays were initiated with erythrocytes infected with predominantly ring-stage parasites, and the starting parasitaemia and haematocrit were both 1%.

[8] = test system: Dd2-Polδ-PfATP4^G358S parasites; assay: as above
Method: as §3

[9] = test system: MMV665949-selected Culture 1 (from Dd2-Polδ; not cloned); assay: as above; details: n = 4
Method: as §2

[10] = NF54G358S-2 parasites, individual experiments, read-out: IC50 values
[11] = NF54G358S-2 parasites, individual experiments, read-out: IC90 values
[12] = Plasmodium falciparum, NF54, NF54G358S-2 parasites, individual experiments, read-out: IC50 values
[13] = Plasmodium falciparum, NF54, NF54G358S-2 parasites, individual experiments, read-out: IC90 values
[14] = Plasmodium falciparum, NF54, NF54G358S-2 parasites, mean of the experiments, read-out: IC50 values, MEAN
[15] = Plasmodium falciparum, NF54, NF54G358S-2 parasites, mean of the experiments, read-out: IC90 values, MEAN
[16] = NF54G358S-1 parasites, individual experiments, read-out: IC50 values
[17] = NF54G358S-1 parasites, individual experiments, read-out: IC90 values
[18] = Plasmodium falciparum, NF54, NF54G358S-1 parasites, individual experiments, read-out: IC50 values
[19] = Plasmodium falciparum, NF54, NF54G358S-1 parasites, individual experiments, read-out: IC90 values
[20] = Plasmodium falciparum, NF54, NF54G358S-1 parasites, mean of the experiments, read-out: IC50 values, MEAN
[21] = Plasmodium falciparum, NF54, NF54G358S-1 parasites, mean of the experiments, read-out: IC90 values, MEAN
[22] = NF54CTL parasites, individual experiments, read-out: IC50 values
[23] = NF54CTL parasites, individual experiments, read-out: IC90 values
[24] = Plasmodium falciparum, NF54, NF54CTL parasites, individual experiments, read-out: IC50 values
[25] = Plasmodium falciparum, NF54, NF54CTL parasites, individual experiments, read-out: IC90 values
[26] = Plasmodium falciparum, NF54, NF54CTL parasites, mean of the experiments, read-out: IC50 values, MEAN
[27] = Plasmodium falciparum, NF54, NF54CTL parasites, mean of the experiments, read-out: IC90 values, MEAN
[28] = NF54WT parasites, individual experiments, read-out: IC50 values
[29] = NF54WT parasites, individual experiments, read-out: IC90 values
[30] = Plasmodium falciparum, NF54, NF54WT parasites, mean of the experiments, read-out: IC50 values, MEAN
[31] = Plasmodium falciparum, NF54, NF54WT parasites, mean of the experiments, read-out: IC90 values, MEAN

Row | SMILES | FC (IC50) [1] [fold] | FC (IC90) [1] [fold] | IC50 [1, 10] | IC90 [1, 11] | IC50 [1, 12] [nM] | IC90 [1, 13] [nM] | IC50 [1, 14] [nM] | IC90 [1, 15] [nM] | FC (IC50) [2] [fold] | FC (IC90) [2] [fold] | IC50 [2, 16] | IC90 [2, 17] | IC50 [2, 18] [nM] | IC90 [2, 19] [nM] | IC50 [2, 20] [nM] | IC90 [2, 21] [nM] | FC (IC50) [3] [fold] | FC (IC90) [3] [fold] | IC50 [3, 22] | IC90 [3, 23] | other results
1 | COc1nc(C(C)C)ccc1-c1cnc2sc(N3CCC(O)(CN)CC3)nn12 [INE963] | 1.4 | 1.4 | 1.11 nM and 0.93 nM and 1.44 nM | 2.37 nM and 2.77 nM and 3.43 nM | 1.1 | 2.11 | 1.15 | 2.7 | 1.4 | 1.4 | 1.09 nM and 1.1 nM and 1.41 nM | 2.82 nM and 2.85 nM and 3.37 nM | 0.91 | 1.87 | 1.13 | 2.7 | 1.5 | 1.3 | 1.15 nM and 1.14 nM and 1.42 nM | 2.46 nM and 2.4 nM and 3.34 nM | IC50 [3, 24]: 1.02 nM; IC90 [3, 25]: 1.87 nM; IC50 [3, 26]: 1.18 nM; IC90 [3, 27]: 2.5 nM; IC50 ([3]; Plasmodium falciparum, NF54, NF54CTL, 10% human serum, read-out: IC50 ± SEM): 1.2 ± 0.1 nM; effect of the G358S mutation in PfATP4 on parasite susceptibility [4]: no impact; also recorded: no effect; IC50 [5, 28]: 0.63 nM and 0.74 nM and 1.17 nM; IC90 [5, 29]: 1.68 nM and 1.36 nM and 1.75 nM and 2.98 nM; FC (IC50) [5]: 1.0 fold; FC (IC90) [5]: 1.0 fold; IC50 ([5]; Plasmodium falciparum, NF54, NF54WT parasites, individual experiments, read-out: IC50 values): 0.7 nM; IC50 [5, 30]: 0.81 nM; IC90 [5, 31]: 1.9 nM; IC50 ([5]; Plasmodium falciparum, NF54, NF54WT, 10% human serum, read-out: IC50 ± SEM): 0.8 ± 0.1 nM; fold increase in IC50 value [6]: 1.4-1.5 fold
2 | Oc1ccc(C(=C(Cl)Cl)c2ccc(O)cc2)cc1 [MMV665949] | – | – | – | – | – | – | – | – | – | – | – | – | – | – | – | – | – | – | – | – | IC50 ([7]; Dd2-Polδ, Supplementary Table 1, Set 2, read-out: Mean IC50 value ± SEM for growth inhibition): 4270 nM; IC50 ([7]; parental Dd2-Polδ, paired with MMV665949-selected Culture 1, n = 4, read-out: IC50): 4300 ± 700 nM; IC50 fold higher than that of Dd2-Polδ parent ([8]; Dd2-Polδ-PfATP4G358S vs Dd2-Polδ, mean ± SEM): no significant change; IC50 ([8]; Dd2-Polδ-PfATP4G358S, Supplementary Table 1, Set 2, read-out: Mean IC50 value ± SEM for growth inhibition): 4870 ± 880 nM; IC50 fold higher than for parental Dd2-Polδ ([9]; MMV665949-selected Culture 1, paired experiments): 10.7 ± 2.0 fold; IC50 ([9]; MMV665949-selected Culture 1, mean ± SEM, read-out: IC50): 44000 ± 7000 nM
3 | COc1ccc2nc3cc(Cl)ccc3c(Nc3cc(CN4CCCC4)c(O)c(CN4CCCC4)c3)c2n1 [Pyronaridine] | 1.2 | 1.1 | 1.86 nM and 1.73 nM and 2.02 nM | 2.89 nM and 2.85 nM and 2.91 nM | 1.25 | 2.63 | 1.7 | 2.82 | 1.3 | 1.1 | 1.77 nM and 2.02 nM and 2.17 nM | 2.9 nM and 3.07 nM and 3.12 nM | 1.24 | 2.64 | 1.8 | 2.93 | 1.2 | 1.1 | 1.43 nM and 1.8 nM and 1.81 nM | 2.8 nM and 2.91 nM | IC90 ([1]; Plasmodium falciparum, NF54, NF54G358S-2, 10% human serum, read-out: IC90 ± SEM): 2.8 ± 0.1 nM; IC50 [3, 24]: 1.47 nM; IC90 [3, 25]: 2.85 nM; IC50 [3, 26]: 1.6 nM; IC90 [3, 27]: 2.86 nM; IC90 ([3]; Plasmodium falciparum, NF54, NF54CTL, 10% human serum, read-out: IC90 ± SEM): 2.9 ± 0.02 nM; effect of the G358S mutation in PfATP4 on parasite susceptibility [4]: no effect; IC50 [5, 28]: 0.91 nM and 1.08 nM and 1.42 nM and 2.14 nM; IC90 [5, 29]: 1.44 nM and 2.14 nM and 2.78 nM and 4.07 nM; FC (IC50) [5]: 1.0 fold; FC (IC90) [5]: 1.0 fold; IC50 [5, 30]: 1.4 nM; IC90 [5, 31]: 2.61 nM; IC90 ([5]; Plasmodium falciparum, NF54, NF54WT, 10% human serum, read-out: IC90 ± SEM): 2.6 ± 0.6 nM
